“Also recorded” adds a separate entry of the source.

Type in all cases: physicochemical
Series [1] is described as follows: Solubility of Ketoconazole in USP dissolution apparatus before and after adding HP-β-Cyclodextrin (experiment 13). On the procedure: FIGS. 5A and 5B refer to a method to determine the solubility of low soluble API and determination of the solubility enhancing effect of an API: Cyclodextrin complex. Accurately weighted amounts of the low soluble API, higher than its intrinsic solubility in the volume and pH of the aqueous media, is added to a defined volume into a vessel of the standard dissolution test apparatus 1 or 2 as defined in US Pharmacopeia (chapter <711> “Dissolution”) at pH conditions suitable for the API as explained above and at standard temperature conditions at the site of absorption e.g., 37° C. and paddle rotation of 50 rpm, with either water or standard aqueous media at pH 1, pH 2, water or buffer pH 6.8. It is to be assured by visual check that the API is not or not fully dissolved to ensure that the added amount is higher than the intrinsic solubility of the API. The dissolution of the API is checked for between 30 Min. and 3 hours, and the amount dissolved is measured with a suitable assay method like UV or HPLC and plotted against time. After the initial phase at least a 100-time overage of the desired complex forming Cyclodextrin, in a suitable complex forming ratio with the API, is added to the dissolution vessel and the dissolution determination is continued for up to 24 hours until the amount of dissolved API reaches a plateau. […]

Series [2] in a line: Solubility of the API in aqueous media. On the procedure: A different aqueous media may be selected if required for stability reasons of the API; e.g., decompensation of the at pH 6.8 or change of the polymorph of the API, e.g. salt formation of a base under low pH conditions and vis versa base formation of API with a strong acid at higher pH values. Preferably, aqueous conditions are selected to maintain an unchanged API polymorph. The amount dissolved is determined either by measuring the concentration at the defined time points and the amount dissolved is plotted versus time. The amount at each time point is determined by a suitable assay method, e.g., UV for API with sufficient extinction coefficient or HPLC with low extinction coefficient.

Series [3] can be described thus: Solubility of Cannabidiol in USP dissolution apparatus before and after adding HP-β-Cyclodextrin (experiment 12). The protocol: FIGS. 5A and 5B refer to a method to determine the solubility of low soluble API and determination of the solubility enhancing effect of an API: Cyclodextrin complex. Accurately weighted amounts of the low soluble API, higher than its intrinsic solubility in the volume and pH of the aqueous media, is added to a defined volume into a vessel of the standard dissolution test apparatus 1 or 2 as defined in US Pharmacopeia (chapter <711> “Dissolution”) at pH conditions suitable for the API as explained above and at standard temperature conditions at the site of absorption e.g., 37° C. and paddle rotation of 50 rpm, with either water or standard aqueous media at pH 1, pH 2, water or buffer pH 6.8. It is to be assured by visual check that the API is not or not fully dissolved to ensure that the added amount is higher than the intrinsic solubility of the API. The dissolution of the API is checked for between 30 Min. and 3 hours, and the amount dissolved is measured with a suitable assay method like UV or HPLC and plotted against time. […]
An accurately weighted amount of Cannabidiol was dissolved in ethanol resulting in a solution containing 5 mg/ml. […] The amount of dissolved CBD was monitored. […]

Take `CC(=O)N1CCN(c2ccc(OCC3COC(Cn4ccnc4)(c4ccc(Cl)cc4Cl)O3)cc2)CC1` (centres unmarked) [Ketoconazole]: in series [1] (500 ml aqueous media pH 6.8), the “solubility of Ketoconazole after overage of HP-β-Cyclodextrin” value is “significantly increased”. In addition, the “solubility of Ketoconazole before Cyclodextrin addition” value in series [1] (500 ml aqueous media pH 6.8, added as powder) is listed as “visibly insoluble”. For the same compound, the “solubility in aqueous media (words)” value in series [2] (pH 2) was “low soluble”; in series [2] (pH 6.8) it was “very insoluble; also recorded: less soluble; also recorded: very low soluble”.
`C=C(C)[C@@H]1CCC(C)=C[C@H]1c1c(O)cc(CCCCC)cc1O` [CBD, Cannabidiol]: in series [3] (500 ml aqueous media pH 2), the “solubility of CBD after overage of HP-β-Cyclodextrin” value is “significantly increased”. Also, in series [3] (500 ml aqueous media pH 2, added as solution in ethanol), the “solubility of CBD before Cyclodextrin addition” value is “almost insoluble”. Moreover, the “solubility in aqueous media (words)” value is listed as “very insoluble” in series [2] (any pH or pH not given) and “insoluble” in series [2] (any pH or pH not given, listed as Cannabidiol).

Values taken from patent publication US20240350642A1, “SUSTAINED RELEASE DOSAGE FORMS FOR LOW SOLUBILITY COMPOUNDS AND METHODS FOR PREPARING OF THESE SUSTAINED RELEASE DOSAGE FORMS” (priority 2023, published 2024).
